Test results: ChEMBL document CHEMBL1135397, “Novel 1-hydroxyazole bioisosteres of glutamic acid. Synthesis, protolytic properties, and pharmacology” (J Med Chem, 2002)

Assays:
[1] = biological target: Excitatory amino acid transporter 1 (Homo sapiens, UniProt P43003); assay: Binding affinity for Excitatory amino acid transporter 1 (EAAT-1) in Glu uptake system
[2] = biological target: Excitatory amino acid transporter 2 (Homo sapiens, UniProt P43004); assay: Binding affinity for Excitatory amino acid transporter 2 (EAAT-2) in Glu uptake system
[3] = biological target: T1, Excitatory amino acid transporter 3 (Homo sapiens, UniProt P43005); assay: Binding affinity for Excitatory amino acid transporter 3 (EAAT-3) in Glu uptake system
T1 sequence (P43005 whole entry): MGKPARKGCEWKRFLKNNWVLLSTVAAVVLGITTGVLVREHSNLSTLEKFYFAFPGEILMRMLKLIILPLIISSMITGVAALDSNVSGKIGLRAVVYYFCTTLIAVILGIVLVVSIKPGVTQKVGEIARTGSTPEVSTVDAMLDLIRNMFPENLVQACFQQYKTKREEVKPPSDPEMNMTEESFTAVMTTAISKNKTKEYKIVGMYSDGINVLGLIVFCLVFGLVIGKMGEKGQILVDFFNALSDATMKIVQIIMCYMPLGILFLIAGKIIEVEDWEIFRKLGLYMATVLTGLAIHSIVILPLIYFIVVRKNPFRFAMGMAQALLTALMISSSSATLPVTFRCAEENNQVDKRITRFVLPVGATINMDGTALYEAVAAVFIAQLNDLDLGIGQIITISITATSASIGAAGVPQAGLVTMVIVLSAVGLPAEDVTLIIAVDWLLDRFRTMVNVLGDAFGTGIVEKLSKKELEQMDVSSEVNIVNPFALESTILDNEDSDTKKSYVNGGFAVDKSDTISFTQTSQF

[4] = Measure of synaptosomal Glu uptake system using [3H]- -D-aspartic acid as radioligand
[5] = biological target: Glutamate receptor ionotropic, kainate; assay: Binding affinity for Ionotropic glutamate receptor using [3H]- kainic acid; type: protein-complex assay, Rattus norvegicus
[6] = biological target: Glutamate NMDA receptor; assay: Binding affinity for N-methyl-D-aspartate glutamate receptor (NMDA) using [3H]- CPP; type: protein-complex assay, Rattus norvegicus
[7] = species on record: Rattus norvegicus; assay: EC50 value was measured in rat cortical wedge preparation; type: functional
[8] = biological target: Glutamate receptor ionotropic, AMPA (Rattus norvegicus, UniProt P19490+P19491+P19492+P19493)
[9] = physchem
[10] = physchem; remark: listed apart in the source
[11] = physchem; remark: listed apart in the source
[12] = Measure of synaptosomal Glu uptake system using [3H]- -D-aspartic acid as radioligand.; type: functional

Excitatory amino acid transporter 2, sequence (P43004 whole entry): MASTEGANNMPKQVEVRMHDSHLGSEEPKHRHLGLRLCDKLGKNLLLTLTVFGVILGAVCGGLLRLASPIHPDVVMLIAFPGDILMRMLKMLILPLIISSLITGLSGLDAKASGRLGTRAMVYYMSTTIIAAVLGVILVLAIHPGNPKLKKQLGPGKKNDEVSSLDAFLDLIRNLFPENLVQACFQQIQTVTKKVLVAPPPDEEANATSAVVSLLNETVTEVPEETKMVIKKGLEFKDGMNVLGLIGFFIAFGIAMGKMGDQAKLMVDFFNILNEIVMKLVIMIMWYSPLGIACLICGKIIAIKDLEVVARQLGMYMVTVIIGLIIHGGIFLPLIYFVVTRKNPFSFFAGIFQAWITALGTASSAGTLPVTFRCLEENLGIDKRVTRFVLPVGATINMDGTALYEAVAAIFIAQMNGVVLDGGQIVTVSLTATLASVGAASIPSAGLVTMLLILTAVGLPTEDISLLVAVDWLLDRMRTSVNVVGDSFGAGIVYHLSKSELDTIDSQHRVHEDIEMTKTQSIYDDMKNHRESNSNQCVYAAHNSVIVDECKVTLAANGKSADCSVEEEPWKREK
Excitatory amino acid transporter 1, sequence (P43003 whole entry): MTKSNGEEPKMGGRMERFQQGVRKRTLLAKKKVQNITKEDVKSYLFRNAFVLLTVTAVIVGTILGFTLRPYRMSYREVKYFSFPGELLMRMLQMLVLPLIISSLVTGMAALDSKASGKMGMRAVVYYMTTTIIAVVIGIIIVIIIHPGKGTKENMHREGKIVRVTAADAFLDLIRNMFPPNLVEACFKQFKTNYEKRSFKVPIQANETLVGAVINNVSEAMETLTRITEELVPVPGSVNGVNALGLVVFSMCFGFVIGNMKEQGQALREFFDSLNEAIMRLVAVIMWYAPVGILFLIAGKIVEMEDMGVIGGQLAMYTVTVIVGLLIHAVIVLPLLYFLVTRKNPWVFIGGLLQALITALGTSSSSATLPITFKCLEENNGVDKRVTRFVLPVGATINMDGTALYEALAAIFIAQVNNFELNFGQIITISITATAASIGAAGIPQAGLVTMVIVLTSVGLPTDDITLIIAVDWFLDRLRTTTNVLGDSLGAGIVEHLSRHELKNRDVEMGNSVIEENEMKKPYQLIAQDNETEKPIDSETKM

Row | SMILES | IC50 [1] [µM] | IC50 [2] [µM] | IC50 [3] [µM] | IC50 [4] [µM] | IC50 [5] [µM] | IC50 [6] [µM] | EC50 [7] [µM] | IC50 [8] [µM] | pKa [9] | pKa [10] | pKa [11] | IC50 [12] [µM]
1 | NC(Cc1ccnn1O)C(=O)O (stereo not drawn) | > 1000 | 430 | > 1000 | > 200 | > 100 | > 100 | 280 | 2.7 | 9.48 | 5.78 | 1.78 | –
2 | Cc1ncc(CC(N)C(=O)O)n1O (stereo not drawn) | > 1000 | > 1000 | > 1000 | > 200 | > 100 | > 100 | > 1000 | > 100 | – | – | – | –
3 | NC(Cc1cncn1O)C(=O)O (stereo not drawn) | > 1000 | > 1000 | > 1000 | > 200 | > 100 | > 100 | > 1000 | > 100 | – | – | – | –
4 | Cc1nnn(O)c1CC(N)C(=O)O (stereo not drawn) | > 1000 | 490 | > 1000 | > 200 | 90 | > 100 | 15 | 0.13 | 9.24 | 5.07 | 1.48 | –
5 | Cc1cnc(CC(N)C(=O)O)n1O (stereo not drawn) | > 1000 | > 1000 | > 1000 | > 200 | > 100 | > 100 | > 1000 | > 100 | – | – | – | –
6 | Cc1cnn(O)c1CC(N)C(=O)O (stereo not drawn) | > 1000 | > 1000 | > 1000 | > 200 | > 100 | > 100 | 586 | 2.6 | 9.81 | 5.89 | 2.05 | –
7 | NC(Cc1conc1O)C(=O)O (stereo not drawn) | 270 | 240 | > 1000 | > 200 | > 100 | > 100 | 900 | 0.27 | – | – | – | –
8 | Cc1onc(O)c1CC(N)C(=O)O [(R,S)-AMPA] | > 1000 | > 1000 | > 1000 | – | – | – | – | – | – | 5.12 | 1.94 | > 200
9 | NC(Cc1cnnn1O)C(=O)O (stereo not drawn) | 100 | 300 | > 1000 | 93 | 47 | > 100 | > 1000 | 0.15 | – | – | – | –
10 | Cc1ncn(O)c1CC(N)C(=O)O (stereo not drawn) | > 1000 | > 1000 | > 1000 | > 200 | > 100 | > 100 | > 1000 | > 100 | 10.2 | 8.82 | 2.81 | –
11 | NC(Cc1nccn1O)C(=O)O (stereo not drawn) | > 1000 | > 1000 | > 1000 | > 200 | > 100 | > 100 | > 1000 | > 100 | – | – | – | –
